Test results reported in PubChem BioAssay AID179 (DTP/NCI, 2004).
pEC50, pIC50: −log10 of the molar value. Calls of active or inactive are those of the source.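 How the source made its calls: active means compounds giving half or more protection of infected cells from virus-caused growth loss, again on retest; inactive means the rest.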

Tested on: CEM cells HIV-1 protection, formazan growth assay
Assay: NCI AIDS Antiviral Assay
Details: for pIC50: measured here: growth of uninfected CEM cells
Summary of the method: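 Human CEM cells, uninfected and HIV-1-infected, received five drug concentrations, and growth was read by soluble formazan assay. Compounds giving at least 50% protection were retested; reproducible 100% protection defined confirmed active.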

| Compound | pEC50 | pIC50 | outcome |
| --- | --- | --- | --- |
| O=S(=O)(Nc1ccccc1)c1ccc(-c2c3nc(c(-c4ccc(S(=O)(=O)Nc5ccccc5)cc4)c4ccc([nH]4)c(-c4ccc(S(=O)(=O)Nc5ccccc5)cc4)c4nc(c(-c5ccc(S(=O)(=O)Nc6ccccc6)cc5)c5ccc2[nH]5)C=C4)C=C3)cc1 | < 4.00 | < 4.00 | – |
| O=C(O)c1cccc(OCCOc2cccc(C(=O)O)c2[N+](=O)[O-])c1[N+](=O)[O-] | < 3.70 | < 3.70 | – |
| Cn1nc2c(c1N)Cc1c(nn(C)c1N)-c1ccccc1-2 | < 3.70 | 3.72 | – |
| CC(=O)O[C@H]1[C@H](OC(=O)CC(C)(O)CC(=O)O)C[C@]2(C)C3=C(CCC2C1(C)C)[C@]1(C)CC[C@H]([C@H]2CC[C@H](C(C)(C)O)OC2O)[C@@]1(C)[C@@H](O)C3 (stereo partly specified) | < 4.00 | 4.31 | – |
| O=C1/C(=C/c2ccc(Cl)c(Cl)c2)CCC/C1=C\c1ccc(Cl)c(Cl)c1 | < 4.30 | 5.53 | – |
| Cc1ccccc1NC(=O)CC(=O)n1nc(-c2ccccc2)c(N=Nc2ccc([N+](=O)[O-])cc2)c1-c1ccccc1 | < 4.60 | 4.79 | – |
| Nc1nc2cc[nH]c2c(=O)[nH]1 | < 3.18 | < 3.18 | – |
| C[N+](C)([O-])CCCNc1ccnc2cccc([N+](=O)[O-])c12 | < 3.70 | 4.56 | – |
| O=[N+]([O-])c1cc2n[nH]nc2c2nonc12 | < 3.70 | 5.32 | – |
| CCCc1cc(=O)oc2c3c(cc(OC(C)C)c12)O[C@H](C)[C@H](C)[C@@H]3O | < 3.70 | 4.31 | – |
| COc1cccc(C(=O)O)c1Cc1cccc2ccccc12 | – | – | inactive |
| Cc1ccc(C(=O)C2CC3(CCC2(O)c2ccc(C)cc2)CC(=O)Nc2ccccc2C3=O)cc1 (stereo unspecified) | < 3.70 | 4.05 | – |
| Cn1c2ccccc2n2c(=O)c3c(c(C#N)c12)CCCC3 | < 5.14 | < 5.14 | – |
| CCC(C)[C@H](NC(=O)N[C@H](C)c1ccccc1)C(=O)OC (stereo partly specified) | < 3.70 | < 3.70 | – |
| Cn1c(NC(=O)NC23CC4CC(CC(C4)C2)C3)nc2ccccc21 | < 3.70 | < 3.70 | – |
| Cn1ccnc1C(c1nccn1C)C(C)(C)[N+](=O)[O-] | < 3.47 | < 3.47 | – |
| CSc1nnc2n(C)c3c(=O)n(C)c(=O)n(C)c3n12 | < 3.70 | < 3.70 | – |
| C=CCCCCCCCCC(=O)NCCN1CCOCC1 | < 3.70 | < 3.70 | – |
| O=S(=O)(O)c1cc(N=Nc2ccc(O)cc2O)ccc1/C=C/c1ccc(N=Nc2ccc(O)cc2O)cc1S(=O)(=O)O | < 4.15 | 4.18 | – |
| NC(=O)C12C(=O)NC(=O)C1(C(=O)O)C2C1CCCCC1 (stereo unspecified) | – | – | inactive |
| CC1=C(C#N)C(=C(C#N)C#N)OC1(C)Cc1ccccc1 (stereo unspecified) | < 3.70 | 3.95 | – |

| Compound | pEC50 | pIC50 | outcome |
| --- | --- | --- | --- |
| COc1ccccc1N1C(=O)/C(=C\c2cccc(Oc3ccccc3)c2)SC1c1ccccc1 (stereo unspecified) | < 3.70 | 4.28 | – |
| CC1CC(=O)c2c(cc3c(-c4c(O)cc(O)c5c(O)c6c(cc45)OC(C)CC6=O)c(O)cc(O)c3c2O)O1 (stereo unspecified) | – | – | inactive |
| O=C(O)c1ccc(CSc2ccccc2)c([N+](=O)[O-])c1 | < 3.20 | 3.61 | – |
| COc1cc(/C=C2\CCc3ccccc3C2=O)cc(OC)c1OC | < 4.51 | 5.01 | – |
| O=C1c2ccccc2C(c2ccccc2)(N2CCCCC2)N1c1ccccc1 (stereo unspecified) | < 4.76 | < 4.76 | – |
| Cc1ccc2nc3c(Cl)cc(=O)cc-3sc2c1 | < 5.12 | 5.41 | – |
| COc1cc2ccc3c4ccccc4cnc3c2cc1OC | < 4.05 | < 4.05 | – |
| CCC[CH2][Sn]([CH2]CCC)([S]c1cccc2cccnc12)[S]c1cccc2cccnc12 | – | – | inactive |
| CCOC(=O)C(C)S(=O)(=O)O (stereo unspecified) | < 3.70 | < 3.70 | – |
| CCOC(=O)C(=O)N(CC(=O)OC)C(=O)Cc1ccccc1 | 3.29 | 3.09 | – |
| C#Cc1ccccc1C(=O)OC | < 3.60 | < 3.60 | – |
| O=C(O)CCN1CCN(CCC(=O)O)CCN(CCC(=O)O)CC1 | < 3.70 | 4.74 | – |
| O=[N+]([O-])c1ccc(-c2nn3c(C45CC6CC(CC(C6)C4)C5)nnc3s2)c(Cl)c1 | < 3.70 | < 3.70 | – |
| CCC(CC)C(=O)NCC(=O)NO | < 3.70 | < 3.70 | – |
| Cc1cc2[n-]c1/C=c1\[n-]/c(c(CCC(=O)O)c1C)=C\c1[n-]c(c(C)c1CCC(=O)O)/C=c1/cc(C)/c([n-]1)=C/2.[Co] | < 4.62 | < 4.62 | – |
| CC(=NNC(=S)Nc1ccccc1C)c1cccc(C(C)=NNC(=S)Nc2ccccc2C)n1 | < 3.70 | 3.96 | – |
| COc1ccc(/C(=N/NC(N)=O)C(c2ccc(OC)cc2)C2C(=O)Oc3ccccc32)cc1 (stereo unspecified) | < 4.52 | < 4.52 | – |
| O=C1C=CC=C/C1=C1/SC(c2ccccc2)=C(O)N1c1ccccc1 | – | – | inactive |
| CC(=O)C1(C)CCC2C3C=C(C)C4=CC(=O)CCC4(C)C3CCC21C (stereo unspecified) | < 3.93 | 4.79 | – |
| NS(=O)(=O)c1ccc(NC(NC(=O)C(C(F)(F)F)C(F)(F)F)(C(F)(F)F)C(F)(F)F)cc1 | < 3.70 | < 3.70 | – |
| O=C(c1ccc(Cl)cc1)N(C(=O)N1CCCCC1)c1ccccc1 | < 3.70 | 4.09 | – |

| Compound | pEC50 | pIC50 | outcome |
| --- | --- | --- | --- |
| CC(C)CNC12CN3CN(CN(C3)C1)C2 | < 2.92 | < 2.92 | – |
| COC(=O)CCC(C)C1CCC2C3CC[C@@H]4CC(CO)CCC4(C)C3CCC12C (stereo partly specified) | < 5.17 | < 5.17 | – |
| CC(C)CC1=[N+]=C(NC#N)N=C(CCC(=O)Nc2ccccc2[N+](=O)[O-])C1 | < 3.17 | < 3.17 | – |
| C=C1CN(Cc2ccccc2)[C@@H]2CCCCC[C@H](C#N)[C@H]12 | < 3.70 | 3.91 | – |
| COc1ccc(C)cc1-c1ccc(-c2cc(C)ccc2OC)o1 | < 4.14 | 4.23 | – |
| O=C1C(Cl)C(c2cccc(O)c2)N1n1cnc2ccccc2c1=O (stereo unspecified) | < 4.12 | < 4.12 | – |
| O=c1/c(=C/c2ccccn2)sc2nc3cc4c(cc3n12)OCCO4 | < 3.70 | < 3.70 | – |
| Cc1ccc2c(c1)C1(SC(C)C(=O)N1c1ccc(Br)cc1)C(=O)N2 (stereo unspecified) | < 3.70 | 5.20 | – |
| Cc1cc(S(=O)(=O)NC2=NCC(C)NN2)c(S)cc1Cl (stereo unspecified) | < 3.70 | 4.40 | – |
| CNC(=O)N(CCC#N)[C@H]1CCCC[C@@H]1N(C(=O)NC)c1ccccc1 | < 3.70 | < 3.70 | – |
| c1ccc(-c2nc(-c3ccccc3)n3c(-c4ccccc4)nnc3n2)cc1 | < 4.83 | < 4.83 | – |
| O=S1c2ccccc2N=C(c2ccc3ccccc3c2)CC1c1ccccc1F (stereo unspecified) | < 4.74 | < 4.74 | – |
| CC1=C/C(=C(\c2cc(C)c(O)c(Br)c2)c2ccccc2S(=O)(=O)O)C=C(Br)C1=O | – | – | inactive |
| O=[N+]([O-])c1ccc(C(Cl)C(Cl)c2ccc(C(Cl)C(Cl)c3ccc([N+](=O)[O-])cc3[N+](=O)[O-])cc2)c([N+](=O)[O-])c1 (stereo unspecified) | < 4.92 | 5.29 | – |
| COC(=O)CCC1=C(C)c2cc3[n-]c(cc4nc(cc5[n-]c(cc1n2)c(CCC(=O)OC)c5C)C(C(C)=O)=C4C)c(C(C)=O)c3C.[Ni+2] | < 4.00 | < 4.00 | – |
| C(CCCCc1nnc(N2CCCCC2)o1)CCCc1nnc(N2CCCCC2)o1 | < 3.70 | < 3.70 | – |
| Cc1cc(O)oc(=O)c1 | < 2.70 | < 2.70 | – |
| COc1ccc(C23OC2Oc2cc(OC4CCCCO4)ccc2C3=O)cc1 (stereo unspecified) | < 4.15 | 4.34 | – |
| COc1ccc(-n2[nH]c(=O)n(C)c2=O)cc1 | < 3.70 | < 3.70 | – |
| O=C1CCCSC(=O)N1Cc1ccccc1 | < 3.70 | < 3.70 | – |
| COc1ccc(CCN2C(=O)CCC3=C2CCCC3=O)cc1OC | < 3.70 | < 3.70 | – |

| Compound | pEC50 | pIC50 | outcome |
| --- | --- | --- | --- |
| O=[N+]([O-])c1ccc(-n2nc3ccc4nonc4c3n2)cc1 | < 3.70 | < 3.70 | – |
| C/C=C/C(=O)Oc1cccc2cccnc12 | < 3.60 | 5.82 | – |
| CNC(=O)CCNC(=O)CCC(=O)OC | < 3.70 | < 3.70 | – |
| NC1=C(c2nc(-c3cc4ccccc4oc3=O)cs2)C(c2ccco2)c2c(c3ccccc3oc2=O)O1 (stereo unspecified) | < 4.00 | < 4.00 | – |
| O=C1c2ccccc2Sc2ccccc2N1CCCN1CCN(c2ccc(F)cc2)CC1 | < 3.70 | 4.47 | – |
| Cc1nn(-c2cc(Cl)ccc2[N+](=O)[O-])c(C)c1Cl | < 3.70 | 3.78 | – |
| Cc1c(-c2ccc(-c3ccccc3F)cc2)nc2ccc(F)cc2c1C(=O)O | < 3.20 | 6.70 | – |
| CCOC(=O)/C(=C/c1ccccc1)N(CC)CC | < 4.26 | < 4.26 | – |
| CC[C@]1(Cc2ccc(OC)c(OC)c2)C=[N+]([O-])O[C@H](OCc2ccccc2)[C@@H]1OC(C)=O | < 3.70 | 4.42 | – |
| O=C1NCN(C2CCCCC2)CN1 | < 3.70 | < 3.70 | – |
| Cc1cc2c(cc1Cl)SC(C(=O)c1ccc(Cl)cc1)=NS2(=O)=O | – | – | inactive |
| C/C(CC(=O)NC1=CC=C(NC(=O)C/C(C)=N\Nc2ccccc2)CC1)=N/Nc1ccccc1 | < 4.25 | < 4.25 | – |
| CN(/N=C/C=N/N(C)C1=NCCCN1)C1=NCCCN1 | 3.96 | < 3.70 | – |
| COc1ccc(/C=C/C(=O)/C=C/c2ccc(OC)cc2OC)c(OC)c1 | < 3.70 | 5.41 | – |
| CC(C)CN1CC(=O)N2CCCN2C(=O)C1 | < 3.39 | < 3.39 | – |
| NC(CSS(=O)(=O)O)=NCC1CC2CCC1C2 (stereo unspecified) | < 3.70 | 4.04 | – |
| Cc1ccc(C2(c3ccccc3)OC3OC=CC32)cc1 (stereo unspecified) | < 3.70 | 4.15 | – |
| CC1=C2CN(C(=O)OCC(C)C)CCC2C2=C(C(=O)c3ccccc3C2=O)C1C (stereo unspecified) | < 4.00 | < 4.00 | – |
| CNC(=O)c1cc(NC(=O)N(CCC#N)CCN(C(=O)N[C@@H](Cc2ccccc2)C(=O)N[C@@H](CC(C)C)C(=O)NC)c2ccccc2)ccc1OC | < 3.70 | 4.49 | – |
| COC1(OC)CC2C(=O)N(Cc3ccccc3)C1C(S(=O)(=O)c1ccccc1)C2C(C)S(=O)(=O)c1ccccc1 (stereo unspecified) | < 4.63 | < 4.63 | – |
| N#CCCN(CCC#N)c1ccc(/C=C(/NC(=O)Nc2ccccc2Cl)NC(=O)c2cc([N+](=O)[O-])ccc2Cl)cc1 | < 4.91 | 5.72 | – |
